test: in vitro; conditions: human, hela cells, % viability

**Q.** Which viability at 28.5 h, 10 µM does the source give for `CN(C)CCCNC(=O)c1ccc([N+](=O)[O-])o1` [CBK262118] here?
**A.** The viability at 28.5 h, 10 µM was 92.8%.

**Q.** Which viability at 28.5 h, 10 µM does the source give for `COc1ccc(/C=N/NC(=O)Cn2nnnc2N)cc1` [CBK262122] here?
**A.** The viability at 28.5 h, 10 µM was 84.9%.

**Q.** For `CCc1cc2c(=O)c(-c3nc4ccccc4n3C)c(C)oc2c(CN2CCOCC2)c1O` [CBK262124], which viability at 28.5 h, 10 µM is on record?
**A.** The viability at 28.5 h, 10 µM was 94.1%.

**Q.** With `Nc1nnc(CC(=O)N/N=C/c2cc(Br)c(O)c(Br)c2O)s1` [CBK262131] as the compound, how does the viability at 28.5 h, 10 µM read?
**A.** Its viability at 28.5 h, 10 µM is 96%.

**Q.** For `O=C(NCc1ccco1)c1ccc2c(c1)OCO2` [CBK262133], which viability at 28.5 h, 10 µM is on record?
**A.** The viability at 28.5 h, 10 µM was 94.4%.

**Q.** Which viability at 28.5 h, 10 µM does the source give for `NC(=O)CCN(CCC(N)=O)S(=O)(=O)c1ccc(N)cc1` [CBK262134] here?
**A.** The viability at 28.5 h, 10 µM was 118%.

**Q.** Which viability at 28.5 h, 10 µM does the source give for `O=C(O)c1cc(NC(=O)c2ccccc2[N+](=O)[O-])cc(C(=O)O)c1` [CBK262135] here?
**A.** The viability at 28.5 h, 10 µM was 81.1%.

**Q.** With `C(=N\c1ccc(Cc2ccncc2)cc1)/c1ccc(/C=N/c2ccc(Cc3ccncc3)cc2)cc1` [CBK262137] as the compound, how does the viability at 28.5 h, 10 µM read?
**A.** Its viability at 28.5 h, 10 µM is 97%.

**Q.** For `CCOC(=O)Nc1ccc(S(=O)(=O)Nn2cnnc2)cc1` [CBK262138], which viability at 28.5 h, 10 µM is on record?
**A.** The viability at 28.5 h, 10 µM was 105%.

**Q.** With `O=C(O)c1cc(-c2cccnc2)nc2ccccc12` [CBK262141K] as the compound, how does the viability at 28.5 h, 10 µM read?
**A.** The viability at 28.5 h, 10 µM was 103%.

**Q.** Which viability at 28.5 h, 10 µM does the source give for `COc1ccc(C(O)Cc2nc3ccccc3n2Cc2ccc(Cl)cc2)cc1` (stereo not shown) [CBK262143] here?
**A.** Its viability at 28.5 h, 10 µM is 86.2%.

**Q.** For `O=C(N/N=C/c1ccc(O)c(I)c1)c1ccncc1` [CBK262144], which viability at 28.5 h, 10 µM is on record?
**A.** Its viability at 28.5 h, 10 µM is 86.2%.

**Q.** Which viability at 28.5 h, 10 µM does the source give for `O=C(N/N=C/c1ccc(OC(=O)c2ccc([N+](=O)[O-])cc2)cc1)c1cccnc1` [CBK262146] here?
**A.** Its viability at 28.5 h, 10 µM is 101%.

**Q.** For `O=C(O)c1cc(-c2ccccn2)nc2ccccc12` [CBK262147K], which viability at 28.5 h, 10 µM is on record?
**A.** Its viability at 28.5 h, 10 µM is 108%.

**Q.** For `COc1ccccc1NC(=O)C(=O)N/N=C/c1ccc(C(=O)O)cc1` [CBK262148], which viability at 28.5 h, 10 µM is on record?
**A.** Its viability at 28.5 h, 10 µM is 93.8%.

**Q.** With `Cc1cc(C=O)c(O)c(/C=N/CC/N=C/c2cc(C)cc(C=O)c2O)c1` [CBK262149] as the compound, how does the viability at 28.5 h, 10 µM read?
**A.** Its viability at 28.5 h, 10 µM is 95.6%.

**Q.** With `O=C(Nc1ccncc1)OCCNC(=O)c1ccncc1` [CBK262150] as the compound, how does the viability at 28.5 h, 10 µM read?
**A.** Its viability at 28.5 h, 10 µM is 102%.

**Q.** Which viability at 28.5 h, 10 µM does the source give for `O=C(Cc1ccc([N+](=O)[O-])cc1)N/N=C/c1ccc(O)cc1` [CBK262152] here?
**A.** Its viability at 28.5 h, 10 µM is 84.5%.

**Q.** For `CN(CCN(C)/N=C/c1cccc2ccccc12)/N=C/c1cccc2ccccc12` [CBK262153], which viability at 28.5 h, 10 µM is on record?
**A.** The viability at 28.5 h, 10 µM was 107%.

**Q.** With `COc1ccc(-c2ccc(/C=N/NC(=O)c3ccncc3)o2)c([N+](=O)[O-])c1` [CBK262156] as the compound, how does the viability at 28.5 h, 10 µM read?
**A.** Its viability at 28.5 h, 10 µM is 97.3%.

**Q.** For `c1ccc2c(CNCc3ccc4c(c3)OCO4)c[nH]c2c1` [CBK262159], which viability at 28.5 h, 10 µM is on record?
**A.** The viability at 28.5 h, 10 µM was 89.5%.

**Q.** With `NC(=O)c1c(NC(=O)COc2ccc(Cl)cc2)sc2c1CCC2` [CBK262163] as the compound, how does the viability at 28.5 h, 10 µM read?
**A.** Its viability at 28.5 h, 10 µM is 91%.

**Q.** With `O=C(O)CN1C(=O)c2ccc(C(=O)c3ccc4c(c3)C(=O)N(CC(=O)O)C4=O)cc2C1=O` [CBK262166] as the compound, how does the viability at 28.5 h, 10 µM read?
**A.** The viability at 28.5 h, 10 µM was 82.3%.

**Q.** With `OCCn1c(-c2ccc(Br)cc2)cn2c3ccccc3nc12` [CBK262167] as the compound, how does the viability at 28.5 h, 10 µM read?
**A.** Its viability at 28.5 h, 10 µM is 95.2%.

**Q.** With `COc1ccccc1CNCc1ccccc1OC` [CBK262168] as the compound, how does the viability at 28.5 h, 10 µM read?
**A.** Its viability at 28.5 h, 10 µM is 106%.

**Q.** With `COc1cc(/C=N/NC(=O)c2cccc([N+](=O)[O-])c2)cc(OC)c1O` [CBK262172] as the compound, how does the viability at 28.5 h, 10 µM read?
**A.** The viability at 28.5 h, 10 µM was 83.1%.

**Q.** For `Cc1cccnc1NC(=O)COc1ccc(Cl)cc1` [CBK262175], which viability at 28.5 h, 10 µM is on record?
**A.** Its viability at 28.5 h, 10 µM is 106%.

**Q.** For `O=C(N/N=C/c1cc2c(cc1Cl)OCO2)C(O)c1ccccc1` (stereo not shown) [CBK262177], which viability at 28.5 h, 10 µM is on record?
**A.** The viability at 28.5 h, 10 µM was 112%.

**Q.** Which viability at 28.5 h, 10 µM does the source give for `O=C(N/N=C/c1ccc(OC(=O)c2cccs2)cc1)c1ccccn1` [CBK262178] here?
**A.** Its viability at 28.5 h, 10 µM is 107%.

**Q.** For `c1ccc(-c2n[nH]c(-c3ccncc3)c2-c2nc3ccccc3[nH]2)cc1` [CBK262180], which viability at 28.5 h, 10 µM is on record?
**A.** Its viability at 28.5 h, 10 µM is 88%.

**Q.** Which viability at 28.5 h, 10 µM does the source give for `COC(=O)Nc1ccc(S(=O)(=O)Oc2ccc(C)cc2-n2nc3ccccc3n2)cc1` [CBK262183] here?
**A.** Its viability at 28.5 h, 10 µM is 89.3%.

**Q.** With `O=C(N/N=C/c1ccc(O)cc1)c1c[nH]c2ccccc12` [CBK262193] as the compound, how does the viability at 28.5 h, 10 µM read?
**A.** Its viability at 28.5 h, 10 µM is 91.4%.

**Q.** For `COc1cc(CNC2CCCCCC2)c([N+](=O)[O-])cc1OC` [CBK262194], which viability at 28.5 h, 10 µM is on record?
**A.** The viability at 28.5 h, 10 µM was 96.4%.

same assay, conditions: human, hela cells, % viability, bulk resorufin, single well

**Q.** With `O=C(O)c1cc(N2C(=O)c3cccc4c([N+](=O)[O-])ccc(c34)C2=O)cc(N2C(=O)c3cccc4c([N+](=O)[O-])ccc(c34)C2=O)c1` [CBK262119] as the compound, how does the viability at 28.5 h, 10 µM read?
**A.** The viability at 28.5 h, 10 µM was 91.8%.
